Results from PMC7613998, “Development of selective inhibitors of phosphatidylinositol 3-kinase C2α” (Nature Chemical Biology, 2022).
Blank lines part the entries; values can stand above or below the molecule they belong to.

Legend:
Assay in all cases: biochemical
Parameters in all cases: SelectScreen Z'-LYTE purified kinase panel, per cent inhibition, mean of two points
Settings in all cases: (μM)=Km app
[1] = target: MKNK1 (MNK1) (Homo sapiens, UniProt Q9BUB5)
[2] = target: FGFR3 (Homo sapiens, UniProt P22607)
[3] = target: PLK3 (Homo sapiens, UniProt Q9H4B4)
[4] = target: PIM3 (Homo sapiens, UniProt Q86V86)
[5] = target: T1, AURKA (Aurora A) (Homo sapiens, UniProt O14965)
T1 sequence (O14965 1-403): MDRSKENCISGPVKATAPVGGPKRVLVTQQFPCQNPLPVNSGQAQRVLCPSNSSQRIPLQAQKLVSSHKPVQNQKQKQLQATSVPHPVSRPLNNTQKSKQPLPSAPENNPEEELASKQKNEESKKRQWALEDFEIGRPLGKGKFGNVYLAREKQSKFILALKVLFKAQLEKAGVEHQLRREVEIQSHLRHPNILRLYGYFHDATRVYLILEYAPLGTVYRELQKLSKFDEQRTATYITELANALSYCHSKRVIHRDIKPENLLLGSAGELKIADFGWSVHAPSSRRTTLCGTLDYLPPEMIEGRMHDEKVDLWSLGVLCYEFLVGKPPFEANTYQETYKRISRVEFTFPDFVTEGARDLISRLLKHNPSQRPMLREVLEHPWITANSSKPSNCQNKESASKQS

[6] = target: MARK3 (Homo sapiens, UniProt P27448)
[7] = target: T2, LYN A (Homo sapiens, UniProt P07948)
T2 construct: isoform A

[8] = target: PDGFRB (PDGFR beta) (Homo sapiens, UniProt P09619)
[9] = target: MAPK11 (p38 beta) (Homo sapiens, UniProt Q15759)
[10] = target: PAK4 (Homo sapiens, UniProt O96013)
[11] = target: MAPKAPK2 (Homo sapiens, UniProt P49137)
[12] = target: PTK2 (FAK) (Homo sapiens, UniProt Q05397)
[13] = target: ABL1 T315I (Homo sapiens, UniProt P00519, T315I)
[14] = target: TEK (Tie2) (Homo sapiens, UniProt Q02763)
[15] = target: FGFR2 (Homo sapiens, UniProt P21802)
[16] = target: BTK (Homo sapiens, UniProt Q06187)
[17] = target: ERBB2 (HER2) (Homo sapiens, UniProt P04626)
[18] = target: SYK (Homo sapiens, UniProt P43405)

Sequence of PDGFRB (PDGFR beta) (P09619 whole entry): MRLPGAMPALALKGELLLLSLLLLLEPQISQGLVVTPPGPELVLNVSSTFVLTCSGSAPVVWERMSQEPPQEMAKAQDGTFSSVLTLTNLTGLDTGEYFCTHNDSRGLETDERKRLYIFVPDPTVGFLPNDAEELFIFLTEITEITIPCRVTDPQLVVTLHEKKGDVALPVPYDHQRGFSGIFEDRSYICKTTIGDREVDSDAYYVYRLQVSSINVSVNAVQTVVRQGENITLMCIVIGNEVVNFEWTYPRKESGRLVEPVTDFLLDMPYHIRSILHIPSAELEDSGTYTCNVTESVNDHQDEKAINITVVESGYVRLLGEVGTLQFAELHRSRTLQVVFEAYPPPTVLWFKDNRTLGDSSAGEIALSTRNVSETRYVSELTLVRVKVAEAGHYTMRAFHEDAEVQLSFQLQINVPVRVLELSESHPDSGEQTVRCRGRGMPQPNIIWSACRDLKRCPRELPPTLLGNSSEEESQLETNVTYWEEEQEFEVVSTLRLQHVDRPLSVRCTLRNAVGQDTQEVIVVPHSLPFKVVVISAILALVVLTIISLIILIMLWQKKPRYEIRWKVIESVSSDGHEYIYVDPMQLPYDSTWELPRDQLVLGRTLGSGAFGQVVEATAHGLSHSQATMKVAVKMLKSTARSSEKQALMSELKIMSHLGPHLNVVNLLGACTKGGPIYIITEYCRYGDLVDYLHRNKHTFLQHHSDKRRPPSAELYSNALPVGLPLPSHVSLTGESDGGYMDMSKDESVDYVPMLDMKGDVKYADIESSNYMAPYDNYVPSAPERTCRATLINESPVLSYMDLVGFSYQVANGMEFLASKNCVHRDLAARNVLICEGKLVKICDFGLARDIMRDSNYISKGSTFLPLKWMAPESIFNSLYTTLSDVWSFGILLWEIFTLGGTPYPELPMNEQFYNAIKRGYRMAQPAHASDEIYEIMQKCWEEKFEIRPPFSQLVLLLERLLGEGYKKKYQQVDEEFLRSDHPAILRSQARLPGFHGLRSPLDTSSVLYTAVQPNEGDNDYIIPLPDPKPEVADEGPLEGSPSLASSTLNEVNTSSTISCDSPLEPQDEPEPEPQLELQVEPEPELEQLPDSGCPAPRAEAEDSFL
Sequence of BTK (Q06187 whole entry): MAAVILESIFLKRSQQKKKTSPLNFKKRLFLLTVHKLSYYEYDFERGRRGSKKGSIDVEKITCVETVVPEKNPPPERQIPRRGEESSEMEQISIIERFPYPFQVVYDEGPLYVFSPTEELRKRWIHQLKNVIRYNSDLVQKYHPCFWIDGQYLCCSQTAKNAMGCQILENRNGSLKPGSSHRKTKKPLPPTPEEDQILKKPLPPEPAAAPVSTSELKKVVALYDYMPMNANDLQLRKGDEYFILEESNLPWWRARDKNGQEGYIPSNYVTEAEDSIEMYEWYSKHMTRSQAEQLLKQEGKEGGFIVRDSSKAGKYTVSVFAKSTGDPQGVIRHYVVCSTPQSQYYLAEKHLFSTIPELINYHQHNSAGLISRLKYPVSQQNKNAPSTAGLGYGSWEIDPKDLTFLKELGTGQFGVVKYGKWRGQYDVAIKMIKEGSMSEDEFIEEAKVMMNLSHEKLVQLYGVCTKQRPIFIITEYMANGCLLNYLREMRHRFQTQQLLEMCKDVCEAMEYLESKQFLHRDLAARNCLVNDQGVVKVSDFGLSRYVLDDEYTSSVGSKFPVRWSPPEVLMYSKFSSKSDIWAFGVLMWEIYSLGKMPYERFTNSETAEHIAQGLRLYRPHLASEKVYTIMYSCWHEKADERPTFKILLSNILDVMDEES
Sequence of TEK (Tie2) (Q02763 whole entry): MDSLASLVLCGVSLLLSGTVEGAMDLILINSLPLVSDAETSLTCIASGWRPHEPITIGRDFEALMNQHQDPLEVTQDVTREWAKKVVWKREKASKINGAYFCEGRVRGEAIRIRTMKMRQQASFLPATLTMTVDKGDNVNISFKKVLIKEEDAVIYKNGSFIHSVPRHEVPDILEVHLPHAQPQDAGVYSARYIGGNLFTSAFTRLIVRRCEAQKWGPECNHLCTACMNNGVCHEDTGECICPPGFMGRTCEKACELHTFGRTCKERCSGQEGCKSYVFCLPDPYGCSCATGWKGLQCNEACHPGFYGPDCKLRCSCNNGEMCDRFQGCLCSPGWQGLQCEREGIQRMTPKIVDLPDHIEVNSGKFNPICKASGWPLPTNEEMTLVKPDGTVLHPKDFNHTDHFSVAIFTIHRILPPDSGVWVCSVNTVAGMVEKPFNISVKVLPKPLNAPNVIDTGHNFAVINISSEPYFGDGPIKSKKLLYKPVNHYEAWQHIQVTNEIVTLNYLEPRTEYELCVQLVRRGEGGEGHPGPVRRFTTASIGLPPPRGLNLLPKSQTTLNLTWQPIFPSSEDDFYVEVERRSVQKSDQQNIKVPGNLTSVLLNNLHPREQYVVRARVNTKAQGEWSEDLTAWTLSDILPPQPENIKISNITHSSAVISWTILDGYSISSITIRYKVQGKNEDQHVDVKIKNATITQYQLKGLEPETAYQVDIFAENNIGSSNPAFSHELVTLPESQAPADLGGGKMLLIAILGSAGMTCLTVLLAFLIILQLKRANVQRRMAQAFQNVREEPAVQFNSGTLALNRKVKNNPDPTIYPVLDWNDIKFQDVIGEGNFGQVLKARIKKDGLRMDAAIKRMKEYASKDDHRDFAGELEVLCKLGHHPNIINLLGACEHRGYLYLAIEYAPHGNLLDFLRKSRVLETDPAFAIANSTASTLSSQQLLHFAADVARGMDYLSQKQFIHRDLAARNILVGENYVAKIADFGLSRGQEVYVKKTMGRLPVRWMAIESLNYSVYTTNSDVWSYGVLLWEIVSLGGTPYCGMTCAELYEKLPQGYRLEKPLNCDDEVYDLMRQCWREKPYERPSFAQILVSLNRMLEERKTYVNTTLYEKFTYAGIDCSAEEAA
T2 sequence (P07948 whole entry, canonical isoform): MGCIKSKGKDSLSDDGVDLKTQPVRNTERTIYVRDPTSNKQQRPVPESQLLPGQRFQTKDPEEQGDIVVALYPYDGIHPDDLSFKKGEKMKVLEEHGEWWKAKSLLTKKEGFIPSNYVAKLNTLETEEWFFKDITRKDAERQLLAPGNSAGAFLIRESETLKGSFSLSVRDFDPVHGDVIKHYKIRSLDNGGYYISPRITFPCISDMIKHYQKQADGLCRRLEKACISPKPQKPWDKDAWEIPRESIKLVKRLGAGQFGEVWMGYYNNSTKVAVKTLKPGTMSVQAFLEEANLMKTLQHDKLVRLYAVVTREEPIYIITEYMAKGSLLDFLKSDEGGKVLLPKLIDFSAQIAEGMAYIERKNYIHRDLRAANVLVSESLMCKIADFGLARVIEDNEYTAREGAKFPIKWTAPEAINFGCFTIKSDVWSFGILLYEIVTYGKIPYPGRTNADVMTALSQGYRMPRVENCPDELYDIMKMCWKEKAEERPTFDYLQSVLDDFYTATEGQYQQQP
Sequence of FGFR2 (P21802 whole entry): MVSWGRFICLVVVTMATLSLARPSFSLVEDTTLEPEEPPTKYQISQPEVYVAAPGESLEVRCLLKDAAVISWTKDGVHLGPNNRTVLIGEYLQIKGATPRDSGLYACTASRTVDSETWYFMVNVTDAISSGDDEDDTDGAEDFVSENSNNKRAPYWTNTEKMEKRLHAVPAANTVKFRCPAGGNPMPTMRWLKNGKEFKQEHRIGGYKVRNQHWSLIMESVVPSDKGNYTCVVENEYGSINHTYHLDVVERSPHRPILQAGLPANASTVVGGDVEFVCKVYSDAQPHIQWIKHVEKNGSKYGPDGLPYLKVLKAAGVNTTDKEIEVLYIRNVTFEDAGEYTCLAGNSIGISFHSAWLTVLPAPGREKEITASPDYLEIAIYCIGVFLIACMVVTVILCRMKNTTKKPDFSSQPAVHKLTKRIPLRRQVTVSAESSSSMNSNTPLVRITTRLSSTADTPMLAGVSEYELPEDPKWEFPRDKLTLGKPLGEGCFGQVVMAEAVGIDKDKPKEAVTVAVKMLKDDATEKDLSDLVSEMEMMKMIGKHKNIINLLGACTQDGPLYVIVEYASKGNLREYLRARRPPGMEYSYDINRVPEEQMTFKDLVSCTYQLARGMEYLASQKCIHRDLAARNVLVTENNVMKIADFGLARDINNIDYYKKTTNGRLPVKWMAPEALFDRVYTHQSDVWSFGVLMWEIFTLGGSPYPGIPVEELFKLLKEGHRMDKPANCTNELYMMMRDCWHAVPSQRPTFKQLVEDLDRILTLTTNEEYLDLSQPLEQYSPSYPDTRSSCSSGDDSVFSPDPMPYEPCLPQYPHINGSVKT
Sequence of MAPK11 (p38 beta) (Q15759 whole entry): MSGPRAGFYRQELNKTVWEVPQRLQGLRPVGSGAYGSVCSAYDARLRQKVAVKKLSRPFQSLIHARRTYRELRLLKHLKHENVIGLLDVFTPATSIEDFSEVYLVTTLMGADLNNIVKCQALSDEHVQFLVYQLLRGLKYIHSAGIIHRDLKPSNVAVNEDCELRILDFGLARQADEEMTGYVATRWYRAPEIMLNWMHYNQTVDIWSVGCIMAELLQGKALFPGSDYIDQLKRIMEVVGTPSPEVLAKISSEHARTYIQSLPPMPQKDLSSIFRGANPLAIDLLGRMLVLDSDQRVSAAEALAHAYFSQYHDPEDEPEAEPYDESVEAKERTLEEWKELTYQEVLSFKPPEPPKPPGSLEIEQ
Sequence of MKNK1 (MNK1) (Q9BUB5 whole entry): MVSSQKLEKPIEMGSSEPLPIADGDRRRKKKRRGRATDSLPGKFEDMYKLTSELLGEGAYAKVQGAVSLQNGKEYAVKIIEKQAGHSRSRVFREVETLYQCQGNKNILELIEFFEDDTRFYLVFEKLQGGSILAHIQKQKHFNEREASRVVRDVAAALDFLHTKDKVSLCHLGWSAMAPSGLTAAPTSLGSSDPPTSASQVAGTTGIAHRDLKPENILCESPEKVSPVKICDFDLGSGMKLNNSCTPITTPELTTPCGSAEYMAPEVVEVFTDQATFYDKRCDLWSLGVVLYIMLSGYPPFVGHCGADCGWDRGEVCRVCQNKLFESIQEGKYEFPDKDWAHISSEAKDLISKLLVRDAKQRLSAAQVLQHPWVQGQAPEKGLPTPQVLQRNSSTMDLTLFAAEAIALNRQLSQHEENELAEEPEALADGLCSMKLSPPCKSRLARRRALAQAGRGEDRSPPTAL

- inhibition at 1 µM [1]: -10.5%
- inhibition at 3 µM [1]: -9.2%
- inhibition at 10 µM [1]: -14.3%
- inhibition at 1 µM [2]: 7.72%
- inhibition at 3 µM [2]: -7.09%
- inhibition at 10 µM [2]: -15.3%
- inhibition at 1 µM [3]: 3.02%
- inhibition at 3 µM [3]: 3.24%
- inhibition at 10 µM [3]: 5.6%
- inhibition at 1 µM [4]: -19.5%
- inhibition at 3 µM [4]: 0.932%
- inhibition at 10 µM [4]: 0.817%
- inhibition at 1 µM [5]: 0.058%
- inhibition at 3 µM [5]: 0.515%
- inhibition at 10 µM [5]: -0.231%
- inhibition at 1 µM [6]: 2.69%
- inhibition at 3 µM [6]: 11.3%
- inhibition at 10 µM [6]: 0.672%
- inhibition at 1 µM [7]: 2.62%
- inhibition at 3 µM [7]: 1.7%
- inhibition at 10 µM [7]: 2.95%
- inhibition at 1 µM [8]: -2.01%
- inhibition at 3 µM [8]: -3.23%
- inhibition at 10 µM [8]: 6.51%
- inhibition at 1 µM [9]: 9.02%
- inhibition at 3 µM [9]: 8.06%
- inhibition at 10 µM [9]: 7.22%
- inhibition at 1 µM [10]: 9.59%
- inhibition at 3 µM [10]: 9%
- inhibition at 10 µM [10]: 4.11%
- inhibition at 1 µM [11]: 4.27%
- inhibition at 3 µM [11]: 5.91%
- inhibition at 10 µM [11]: 1.1%
- inhibition at 1 µM [12]: 4.94%
- inhibition at 3 µM [12]: 3.7%
- inhibition at 10 µM [12]: 2.3%
- inhibition at 1 µM [13]: -2.1%
- inhibition at 3 µM [13]: -3.21%
- inhibition at 10 µM [13]: -2.35%
- inhibition at 1 µM [14]: 7.5%
- inhibition at 3 µM [14]: 5.07%
- inhibition at 10 µM [14]: 3.39%
- inhibition at 1 µM [15]: 1.54%
- inhibition at 3 µM [15]: 2.27%
- inhibition at 10 µM [15]: -1.86%
- inhibition at 1 µM [16]: 6.72%
- inhibition at 3 µM [16]: 3.08%
- inhibition at 10 µM [16]: 2.73%
- inhibition at 1 µM [17]: -9.9%
- inhibition at 3 µM [17]: -2.96%
- inhibition at 10 µM [17]: -11.6%
- inhibition at 1 µM [18]: 2.84%
- inhibition at 3 µM [18]: 2.83%
- inhibition at 10 µM [18]: -0.59%
SMILES: O=C(CSc1nc2nccnc2c(=O)n1CCc1ccccc1)Nc1nccs1 [compound 1, PITCOIN1]

- inhibition at 1 µM [1]: -3.26%
- inhibition at 3 µM [1]: -7.92%
- inhibition at 10 µM [1]: 0.613%
- inhibition at 1 µM [2]: -8.51%
- inhibition at 3 µM [2]: 0.972%
- inhibition at 10 µM [2]: 8.3%
- inhibition at 1 µM [3]: 3.58%
- inhibition at 3 µM [3]: 4.83%
- inhibition at 10 µM [3]: 4.26%
- inhibition at 1 µM [4]: -2.65%
- inhibition at 3 µM [4]: -27.1%
- inhibition at 10 µM [4]: -12.5%
- inhibition at 1 µM [5]: 5.01%
- inhibition at 3 µM [5]: 0.816%
- inhibition at 10 µM [5]: 0.802%
- inhibition at 1 µM [6]: 1.74%
- inhibition at 3 µM [6]: 4.94%
- inhibition at 10 µM [6]: 6.84%
- inhibition at 1 µM [7]: 1.87%
- inhibition at 3 µM [7]: 2.86%
- inhibition at 10 µM [7]: 1.59%
- inhibition at 1 µM [8]: 4.69%
- inhibition at 3 µM [8]: -3.18%
- inhibition at 10 µM [8]: 1.91%
- inhibition at 1 µM [9]: 10.5%
- inhibition at 3 µM [9]: 8.66%
- inhibition at 10 µM [9]: 4.91%
- inhibition at 1 µM [10]: 4.8%
- inhibition at 3 µM [10]: 3.9%
- inhibition at 10 µM [10]: 2.41%
- inhibition at 1 µM [11]: 0.509%
- inhibition at 3 µM [11]: 3.08%
- inhibition at 10 µM [11]: 6.37%
- inhibition at 1 µM [12]: 9.45%
- inhibition at 3 µM [12]: 8.02%
- inhibition at 10 µM [12]: 6.38%
- inhibition at 1 µM [13]: 1.95%
- inhibition at 3 µM [13]: 3.78%
- inhibition at 10 µM [13]: 2.19%
- inhibition at 1 µM [14]: 8.6%
- inhibition at 3 µM [14]: 10.7%
- inhibition at 10 µM [14]: 5.64%
- inhibition at 1 µM [15]: 6.04%
- inhibition at 3 µM [15]: 6.91%
- inhibition at 10 µM [15]: 3.2%
- inhibition at 1 µM [16]: 3.1%
- inhibition at 3 µM [16]: 6.59%
- inhibition at 10 µM [16]: 3.91%
- inhibition at 1 µM [17]: -1.62%
- inhibition at 3 µM [17]: -3.07%
- inhibition at 10 µM [17]: -10.7%
- inhibition at 1 µM [18]: 0.0373%
- inhibition at 3 µM [18]: 3.51%
- inhibition at 10 µM [18]: 6.6%
SMILES: CS(=O)(=O)Nc1cccc(-c2csc(NC(=O)CSc3nc4nccnc4c(=O)n3CCc3ccccc3)n2)c1 [compound 3, PITCOIN3]
